Data taken from ChEMBL document CHEMBL1139617, “Total synthesis and bioactivity of unique flavone desmosdumotin B and its analogs” (2005).

System: Raji
Assay: Percent viability of Raji cells at concentration of 1000 mol ratio / 20 ng/mL TPA
Format: functional, Homo sapiens

With `CC1(C)C(=O)C(C(=O)/C=C/c2ccccc2)=C(O)C(C)(C)C1=O` the Viability was 70%.

Compound `CC1=C(O)C(C)(C)C(O)=C(C(=O)/C=C/c2ccccc2)C1O` (stereo unspecified) has a Viability of 70%.

For `COC1=C(C)C(=O)c2c(oc(-c3ccccc3)cc2=O)C1(C)C`, the Viability was 70%.

`CC(=O)C1=C(O)C(C)(C)C(O)=C(C(C)=O)C1=O` was tested, and the Viability was 60%.

Compound `CC(=O)C1=C(O)C(C)(C)C(O)=CC1=O` has a Viability of 60%.

`CC(=O)C1=C(O)C(C)=C(O)C(C)(C)C1=O` showed a Viability of 60%.

`CC(=O)c1c(O)cc(O)c(C(C)=O)c1O` gave a Viability of 60%.

`CC(=O)C1=C(O)C(C)(C)C(=O)C(C)(C)C1=O` was tested, and the Viability was 60%.

With `CC1=C(O)C(C)(C)C2=C(C(=O)CC(c3ccccc3)O2)C1=O` (stereo unspecified) the Viability was 70%.

In the case of `COC1=C(C)C(O)=C(C(=O)/C=C/c2ccccc2)C(=O)C1(C)C` [DESMOSDUMOTIN C], the Viability is reported as 70%.

`CC1=C(O)C(C)(C)c2oc(-c3ccccc3)cc(=O)c2C1=O` [DESMOTUMOTIN B] gave a Viability of 70%.
